Test results reported in patent US8865659B2, “Compositions for prevention or treatment of Hepatitis C virus containing ginsenoside Rg3 as an active ingredient” (priority 2012, dated 2014).

Experiments:
Assay type in all cases: cell-based
[1] = tested on: TNF-α; experiment: Real-time PCR for TNF-α level in virus-infected Huh 7.5.1 cells
Protocol: To identify a mechanism of apoptosis action, virus-infected Huh 7.5.1 cells were treated with ginsenoside Rg3 and conducted real-time PCR (Taqman Real-time Quantitative RT-PCR Assay for HCV RNA Detection) to estimate TNF-α level.
First, a total number of 50,000 Huh 7.5.1 cells were incubated in 24 well and a total RNA was extracted from the above stated treated cells using Rneasy mini kit (QIAGEN Corp.). And then, the total RNA was quantified by Nanodrop 1000 (Thermo Scientific Corp.), and manufactured cDNA by conducting RT PCR (Reverse Transcription-PCR) using i cycler, (BIO-RAD Co.). After the synthesized cDNAs were reacted with TaqMan GX Master Mix (Applied Biosystems, Branchburg, N.J.), TNF-α, B-actin mRNAs were quantified by 96 well real-time PCR (StepOne Plus Sequence detector system, Applied Biosystems). Verified primer/probe set was purchased to conduct the TaqMan Gene Expression assay in this experiment (Gene: TNF-α (TNF-alpha) # Hs01113624_g1, Gene Symbol: ACTB # Hs99999903_m1).

[2] = tested on: Hepatitis C virus (JFH-1); experiment: Real-time PCR against JFH-1 mRNA in Huh 7.5.1 cells; conditions: 100 μM, 72 hours
Protocol: The experiment was carried out as follow. First, 200,000 Huh 7.5.1 cells were placed in a 60×15 mm cell culture dish. Next day, Japanese Fulminant Hepatitis-1 virus (JFH-1) stock vial which was stored in −70° C. refrigerator was taken out and thawed out in a container filled with ice-water. The culture medium was collected from the cultured 60×15 mm cell culture dish, washed with 1×PBS and collected, again. 1.5 ml of JFH-1 virus solution per 60×15 mm cell culture dish each was added. The dish was shaken to cover the surface sufficiently. The dish was laid in a 5% CO2 incubator at 37° C. for 6 hours and after that, the supernatant was draw out. 1×PBS was spread on the cell surface as slow as possible and after one time washing, cells were collected. 5 ml of cell culture media was added to control and JFH-1 treatments groups. […] After that, the cell culture media was laid in a 5% CO2 incubator at 37° C. After 72 hours, the following steps were carried out.
As described in the above Example 3, the Huh 7.5.1 cells were treated with each 100 μM of seven ginsenosides (Ro, Re, Rg1, Rg2, Rg3, Rh1, Rh2). After 72 hours, a real-time PCR against JFH-1 mRNA was carried out. […]
Specific real-time PCR carried out was as follow. […] After that, total RNA was extracted from the cells treated by the above described method by using Rneasy mini kit (QIAGEN) and quantified by using Nanodrop 1000 (Thermo Scientific). […]

[3] = tested on: phospho-NFκB; experiment: Western blotting onto NFκB and phospho-NFκB in JFH-1 infected Huh 7.5.1 cells; conditions: 100 μM, 72 hours
Excerpt: Conducted western blotting onto NFκB and phospho-NFκB which are transcription factors of virus suppression mechanism of ginsenosides to a hepatoma cell line.
Specifically, it is known that when cells are infected with hepatitis C viruses, TNF-α in the cells increases and, apoptosis actions in the cells increases due to an anti-apoptotic factor, NFkB decreases. Additionally, identification of phosphor-NFκB among NFκB (total) is important to know activation level of NFκB.
Herein, western blotting analysis onto NFκB and phospho-NFκB, transcription factors, was carried out to identify the TNF-α mediated apoptotic signaling pathway. The TNF-α is induced by Hepatitis C. The analysis was conducted 72 hours after the samples of Huh 7.5.1 cells treated with each 100 μM of seven ginsenosides (Ro, Re, Rg1, Rg2, Rg3, Rh1, Rh2) as above stated in Example 3.
Specifically, the western blotting analysis was carried out as follow. First, the above described samples were prepared, mixed with a sample buffer in tubes and heated at 100° C. for 10 minutes. The tubes were cooled on ice and centrifuged. The electrophoresis was carried out with the prepared samples and molecular weight markers were put in. And then, they were transferred to a PVDF membrane (hydrophobic). After blocking with 5% skin milk for an hour, primary antibodies of NFκB and phospho-NFκB were added. […]

CC(C)=CCC[C@](C)(O)[C@H]1CC[C@]2(C)[C@@H]1[C@H](O)C[C@@H]1[C@@]3(C)CC[C@H](O[C@@H]4O[C@H](CO)[C@@H](O)[C@H](O)[C@H]4O[C@@H]4O[C@H](CO)[C@@H](O)[C@H](O)[C@H]4O)C(C)(C)[C@@H]3CC[C@]12C [ginsenoside Rg3]
remarkably decreased: level of TNF-α [1] | JFH-1 mRNA [2] | apoptosis of cells [3]
